The nature of assay [1]: ORAC assay adapted for the linoleate microemulsion system (relative ORAC, synergy). On the procedure:
Synergistic effects of bioactive compounds combined with alpha-tocopherol. […] An OBS microplate was prepared with duplicate wells of Trolox solution standards (20 μL; 500, 250, 125, 62.5, or 31.25 μM) and triplicate wells of samples diluted in phosphate buffer (20 μL). The perimeter wells were not used for kinetic studies to avoid potential edge effects. The oxidation substrate, methyl linoleate microemulsion (200 μL), was then added. […] A control well containing 200 μL of microemulsion and 40 μL of phosphate buffer was used to normalize the fluorescence reading. The reaction kinetics were monitored at 37° C. for 2 h, with readings every 2 min, by a Synergy HT microplate fluorescent reader (Biotek Instruments Inc.). The microplate reader was fitted with an excitation filter at 485 nm, an emission filter of 590 nm, and an oxygen sensor biosystem, and the plate was shaken for 20 s at low intensity before each reading to ensure sufficient mixing. After normalization, the fluorescence data were converted to the oxygen concentration at each point of the reaction. The ORAC values of samples were determined as previously described ([…]. et al., Journal of Agricultural and Food Chemistry 2009, 57, 3409-3414).

Another assay deals with human adipocytes. Put plainly: Glucose uptake (3H-2-deoxyglucose) in adipocytes. In kind it is cell-based. To be noted: 100 nM insulin (positive control). On the procedure: (§1) Glucose uptake. […] Briefly, primary human subcutaneous adipocytes or primary human myoblasts were differentiated in 96-well microplates. […] All samples, including the positive and negative controls, were tested in triplicate. After a 2-h incubation at 37° C. and 5% CO2, the cells were washed with PBS and lysed. The cell lysate was mixed with scintillation fluid and radioactivity of each well was measured as counts per minute (CPM).

Assay [2] has as its system human skeletal muscle cells. Put plainly: Glucose uptake (3H-2-deoxyglucose) in skeletal muscle cells. To be noted: 100 nM insulin (positive control). In kind it is cell-based. On the procedure:
as §1

The source of these data is patent US20130261136A1, “COFFEE EXTRACTS AS INGREDIENTS OF FOODS, DRUGS, COSMETICS, DIETARY SUPPLEMENTS, AND BIOLOGICS” (priority 2010, published 2013).

For the molecule `O=C1O[C@H]([C@@H](O)CO)C(O)=C1O` [ascorbic acid], in assay [1], the “Antioxidant effect in combination with α-tocopherol” value is “additive”. Same read-out and setting: with `O=C(/C=C/c1ccc(O)c(O)c1)O[C@@H]1C[C@](O)(C(=O)O)C[C@@H](O)[C@H]1O` [chlorogenic acid] the entry was “synergistic”.

On to insulin, for which the figures for the “Increase in glucose uptake” value (in the assay on human adipocytes; in assay [2]) were 1.6 fold and 2.06 fold, respectively. Turning to `Oc1cc(O)c2c(c1)O[C@H](c1ccc(O)c(O)c1)[C@@H](O)C2` [catechin, Catechin], the “Antioxidant effect in combination with α-tocopherol” value in assay [1] is listed as “synergistic”.
